# Laboratory results: the SangsterLogP compilation
# Assay: method code SF-GLC, from DOI: 10.1002/qsar.19850040403
# Details: pH 13.0
row,SMILES,logD
1,CCCN(CC)CC(F)(F)F,2.38
2,CCCNCC(C)C,2.07
3,CCCCCN,1.49
4,CC(C)CN,0.73
5,CCCN(CCC)CCC,2.79
6,C=CCNCCC,1.33
7,CCCN(C)CC(F)(F)F,2.18
8,CCCNC(C)CC (centres undefined),1.91
9,CCN(CC)CC(F)(F)F,1.88
10,CN(C)CC(F)(F)F,1.06
11,CCCN(CC)CCC,2.68
12,CCNCC(F)(F)F,0.74
13,NCC(F)(F)F,0.24
14,CCNC(C)C,0.93
15,C1CCNC1,0.46
16,CCCCNCCC,2.12
17,CCCCC(CC)CN (centres undefined),2.82
18,CCCCCCCN,2.57
19,C1CN2CCC1CC2,1.38
20,CNCC(F)(F)F,0.55
21,C=CCNCC,0.81
22,CCNC,0.15
23,CC(C)N,0.26
24,CCN(C)C,0.7
